Values after ≈ are worked out from the molar mass of the structure shown.
How the values were obtained:
B16 [1] = experiment: Inhibition of alpha-MSH-stimulated melanogenesis in mouse B16 cells assessed as melanin release after 72 hrs; type: functional, cell-based; details: for IC50: B16, 72 h
B16 [2] = experiment: Cytotoxicity against mouse B16 cells assessed as cell viability; type: cell-based

Structure (SMILES)	IC50 (B16 [1]) [µg/mL]	Activity (B16 [2])	inhibition (B16 [1])
OC[C@H]1O[C@@H](Oc2ccc(O)cc2)[C@H](O)[C@@H](O)[C@@H]1O [ARBUTIN]	67.9 (≈ 249 µM)		
CC(C)=C/C=C1\O[C@@H]2CC(C)=CC(=O)[C@@H]2[C@]1(C)O [BISABOLANGELONE]	5.3 (≈ 21.3 µM)	Non-toxic	Dose-dependent effect
C/C=C(/C)C(=O)O[C@H]1Cc2cc3ccc(=O)oc3cc2OC1(C)C [DECURSINOL ANGELATE]	5.8 (≈ 17.7 µM)	Non-toxic	Dose-dependent effect
C=C[C@@H](O)C#CC#C[C@@H](O)/C=C\CCCCCCC [FALCARINDIOL]	2.9 (≈ 11.1 µM)	Non-toxic	Dose-dependent effect
O=c1cc(CO)occ1O [KOJIC ACID]	5.5 (≈ 38.7 µM)		
CO[C@@]1(/C=C/C(C)(C)O)O[C@H]2CC(C)=CC(=O)[C@H]2[C@@]1(C)O [OSTERIVOLONE A]	1.1 (≈ 3.71 µM)	Non-toxic	Dose-dependent effect
COC(C)(C)/C=C/[C@]1(OC)O[C@H]2CC(C)=CC(=O)[C@H]2[C@@]1(C)O [OSTERIVOLONE B]	5.6 (≈ 18 µM)	Non-toxic	Dose-dependent effect
CO[C@@]1(C(C=C(C)C)OC(C=C(C)C)[C@]2(O)O[C@H]3CC(C)=CC(=O)[C@H]3[C@@]2(C)O)O[C@H]2CC(C)=CC(=O)[C@H]2[C@@]1(C)O (some centres undefined) [OSTERIVOLONE C]	4.5 (≈ 8.03 µM)	Non-toxic	Dose-dependent effect
CC(C)=C/C=C1\O[C@H]2C[C@](C)(O)CC(=O)[C@H]2[C@@]1(C)O [OSTERIVOLONE D]	1.9 (≈ 7.13 µM)	Non-toxic	Dose-dependent effect
O=c1ccc2cc3ccoc3cc2o1 [PSORALEN]	> 200		

Source: ChEMBL document CHEMBL2016566, “Melanogenesis inhibitory bisabolane-type sesquiterpenoids from the roots of Angelica koreana” (Bioorg Med Chem Lett, 2012)
